Reference: US6960687B2, “Derivatives and pharmaceutical compositions of n-hydroxyalkyl tetramethylcyclopropane-carboxamide, having anti-epiletic, neurological, and CNS activity, and method for their preparation” (priority 2002, dated 2005)

Legend:
mice [1] = conditions: cited from earlier work
mice [2] = assay: maximal electroshock seizure test (MES); type: in vivo
Method: The ED50 (mice ip) in the MES model is between 150 and 300 mg/kg in mice (Table 1). This value is slightly lower than that of VPA in mice. The results are indicative of the compound 1 having an efficacy against generalized seizures and complex partial seizures that evolve into generalized motor seizures.
(§1) Compound V of the above diagram (2-hydroxyethyl-tetramethylcyclopropane-carboxamide) was screened for its ability to protect against induced convulsions in MES and scMet test. […] At the sc Met (subcutaneous metrazole) test, 3 out of 4 mice were protected following ip administration of 50 mg/kg.

mice [3] = assay: subcutaneous metrazole test (sc Met); type: in vivo
Text: This value is slightly lower (more efficacious) than that found for VPA in mice. The results are indicative of the compound 1 having an efficacy against absence seizures and ability to raise seizure threshold.
as §1

mice [4] = assay: neurotoxicity, rotorod ataxia test; type: in vivo
Method: (§2) Neurotoxicity of the claimed agents was assessed in mice (ip. administration) in the rotorod ataxia test. Compound 1 was neurotoxic in some of the mice tested at doses of above 146 mg/kg ip. The PI for compound 1 at the highest stimulus intensity (44 mA) in the 6 Hz test in mice was 1.1 compared to 0.91 for VPA.

mice [5] = assay: 6 Hz psychomotor seizure model; conditions: for PI (6 Hz 44 mA): protective index at 44 mA stimulus; for ED50: Mus musculus, 0.25 h
mouse = conditions: literature statement; cited from earlier work
[6] = neurotoxicity, rotorod ataxia test; type: in vivo, mice; conditions: mouse, in vivo, ip
Method: as §2

[7] = tested on: animal models of epilepsy; conditions: literature statement; cited from earlier work
[8] = ip, 15 min following administration

In the case of `CC[C@@H](C(N)=O)N1CCCC1=O` [levetiracetam], the “ED50 in 6 Hz model at 44 mA stimulus (existing antiepileptic drugs)” value (mice [1]) is listed as 189 mg/kg.

With `CC1(C)C(C(=O)NCCO)C1(C)C` [Compound V, 2-hydroxyethyl-tetramethylcyclopropane-carboxamide] the “mice protected at the MES test” value (mice [2]; dose of 30 mg/kg ip) was 1 out of 4, the “mice protected at the sc Met test” value (mice [3]; ip administration of 50 mg/kg) was 3 out of 4 and the “behavioral impairment (neurotoxicity)” value (mice [4]; dose of 50 mg/kg ip) was “did not show any behavioral impairment”.

For `CC1(C)C(C(=O)NCO)C1(C)C` [Compound 1, N-hydroxymethyl-tetramethylcyclopropane-carboxamide], the “MES ED50” value (mice [2]; [8]) was 150 to 300 mg/kg, the “sc Met ED50” value (mice [3]; [8]) was 120 mg/kg and the “Neurotoxicity TD50” value (mice [4]; mice, ip, 15 min following administration) was 146 mg/kg. The “doses neurotoxic in some of the mice tested” value (mice [4]; mice, ip, rotorod ataxia test) was “above 146 mg/kg”, the “times more active compared to VPA, 6 Hz 32 mA test” value (mice [5]; mice, 32 mA) was 1.38 times and the “times more active compared to VPA, 6 Hz 44 mA test” value (mice [5]; mice, 44 mA) was 2.31 times. The “6 Hz 22 mA ED50” value (mice [5]; mice, ip, 15 min, stimulation intensity 22 mA) was 75 mg/kg, the “6 Hz 32 mA ED50” value (mice [5]; mice, ip, 15 min, stimulation intensity 32 mA) was 91 mg/kg and the “6 Hz 44 mA ED50” value (mice [5]; mice, ip, 15 min, stimulation intensity 44 mA) was 134 mg/kg. For the same compound, the “PI (6 Hz 44 mA)” value (mice [5]; mice, ip) was 1.1.

In the case of `CC1(C)C(C(N)=O)C1(C)C` [Tetramethylcyclopropane carboxamide, Tetramethyl-cyclopropane-carboxamide], the teratogenicity (mouse) is given as “not teratogenic”.

In the case of `CCCC(C(N)=O)C(C)C` (stereo not drawn) [propyl-isoproylacetamide (PID), propyl-isoproylacetamide], the teratogenicity (mouse) is given as “non-teratogenic”.

Compound `CCCC(CCC)C(=O)O` [VPA, valproic acid, reference compound] has an ED50 (mice [2]; Mus musculus, 0.25 h, ip, 15 min following administration) of 271 mg/kg, a TD50 at 15 min [6] of 283 mg/kg and an ED50 (mice [5]; ip, read-out: 6 Hz 22 mA ED50) of 42 mg/kg. For the same compound, the ED50 (mice [5]; ip, read-out: 6 Hz 44 mA ED50) was 310 mg/kg and the “PI (6 Hz 44 mA)” value (mice [5]; mice, ip) was 0.91.

In the case of `CCC(C)C(CC)C(N)=O` (stereo not drawn) [Valnoctamide (VCD), Valnoctamide], the teratogenicity (mouse) is given as “non-teratogenic”.

In the case of `CNC(=O)C1C(C)(C)C1(C)C` [N-Methyl-tetramethylcyclopropane carboxamide], the teratogenicity (mouse) is listed as “not teratogenic” and the “potency relative to VPA in animal models of epilepsy” value [7] is listed as “approximately 10 times”.
